# Experimental data published in patent publication US7582627B2, “3-aminoquinazolin-2,4-dione antibacterial agents” (Warner-Lambert Company, priority 2000, dated 2009).
# Counter-ions that a name gives are not always drawn. Like-named read-outs stand apart in the source and are kept apart here.
# How the values were obtained:
# [1] = tested on: S. aureus 2554; experiment: Cross resistance antibacterial assay, microtitration MIC; assay type: cell-based; settings: Staphylococcus aureus, 2554, read-out: Minimum Inhibitory Concentrations S. aureus 2554
# Method: (§1) The compounds of the present invention are tested against an assortment of ciprofloxacin resistant E. coli and S. aureus organisms described below using standard microtitration techniques (Cohen, et al., Antimicrob. Agents Chemother., 1985; 28:766; Heifetz, et al., Antimicrob. Agents Chemother., 1974; 6:124).
# [2] = tested on: S. aureus 2558; experiment: as above; assay type: cell-based; settings: Staphylococcus aureus, 2558, read-out: Minimum Inhibitory Concentrations S. aureus 2558
# Method: as §1
# [3] = tested on: E. coli JL4; experiment: as above; assay type: cell-based; settings: Escherichia coli, Tol C pump deficient strain with E. coli W3110 background, read-out: Minimum Inhibitory Concentrations E. coli JL4
# Method: as §1
# [4] = tested on: S. aureus UC-76; experiment: as above; assay type: cell-based; settings: Staphylococcus aureus, UC76; typical sensitive laboratory strain (wild type); read-out: Minimum Inhibitory Concentrations S. aureus UC-76
# Method: as §1
# [5] = tested on: E. coli LLM1; experiment: as above; assay type: cell-based; settings: Escherichia coli, LLM1, read-out: Minimum Inhibitory Concentrations E. coli LLM1
# Method: as §1
# [6] = tested on: S. aureus 2552; experiment: as above; assay type: cell-based; settings: Staphylococcus aureus, read-out: Minimum Inhibitory Concentrations S. aureus 2552
# Method: as §1
# [7] = tested on: E. coli Tol C; experiment: Antibacterial assay, microtitration MIC; assay type: cell-based; settings: for MIC: Escherichia coli, read-out: Minimum Inhibitory Concentrations E. coli Tol C
# Method: (§2) The compounds of the present invention are tested against an assortment of Gram negative and Gram positive organisms using standard microtitration techniques (Cohen et al., Antimicrob. Agents Chemother., 1985; 28:766; Heifetz et al., Antimicrob. Agents Chemother., 1974; 6:124). The results of the evaluation of representative 3-aminoquinazolin-2,4-diones of Formula I are shown in Table 2 and compared to two 3-hydroxyquinazolin-2,4-diones.
# [8] = tested on: E. faecalis RB1; experiment: Antibacterial assay, microtitration MIC; assay type: cell-based; settings: for MIC: Enterococcus faecalis
# Method: as §2
# [9] = tested on: S. pyogenes C203; experiment: Antibacterial assay, microtitration MIC; assay type: cell-based; settings: for MIC: Streptococcus pyogenes
# Method: as §2
# [10] = tested on: S. aureus 29213; experiment: Antibacterial assay, microtitration MIC; assay type: cell-based
# Method: as §2
# [11] = tested on: E. coli B90; experiment: Antibacterial assay, microtitration MIC; assay type: cell-based; settings: for MIC: Escherichia coli
# Method: as §2
# [12] = tested on: E. coli MC4100; experiment: Antibacterial assay, microtitration MIC; assay type: cell-based; settings: for MIC: Escherichia coli
# Method: as §2
# [13] = target: T1, E. coli gyrase (Escherichia coli, UniProt P0AES4+P0AES6); experiment: DNA gyrase supercoiling inhibition assay; assay type: biochemical
# T1 construct: purchased Lucent, Ltd., Leicester, UK
# Method: The effects of invention compounds on the activity of DNA gyrase is determined in the supercoiling inhibition assay, following reaction conditions recommended by the enzyme supplier (Lucent, Ltd., Leicester, UK). Reactions are performed in buffer G (35 mM Tris-HCl (pH 7.5), 24 mM KCl, 4 mM MgCl2, 2 mM DTT, 1.8 mM spermidine, 1 mM ATP, 0.1 mg/mL bovine serum albumin). Relaxed plasmid pBR322 (0.25 μg, Lucent, Ltd., Leicester, UK) is reacted with 1 U E. coli gyrase (Lucent, Ltd., Leicester, UK), in the absence or presence of test compounds, for 30 minutes at 37° C. Reactions are stopped by the addition of SDS and proteinase K to respective final concentrations of 1% and 0.5 mg/mL. After an additional 30 minutes at 37° C., one-tenth volume of 10× loading buffer (0.3% bromophenol blue, 16% Ficoll, 10 mM Na2HPO4) is added, and reactions are loaded onto agarose gels and electrophoresed. The concentration of representative invention compounds of Formula I inhibiting 50% of the supercoiling activity of DNA gyrase is given as an IC50 and recorded in Table 2.
# [14] = tested on: S. pyogenes; experiment: In vivo median protective dose, lethal systemic infection; settings: mice
# Method: (§3) The in vivo activity of invention compounds is evaluated according to the procedure of Miller et al., Proc. Soc. Exp. Biol. Med, 1944; 57:261. The median protective dose (PD50) is determined in mice given lethal systemic infections. Two 3-aminoquinazolin-2,4-diones of the invention are compared to a […], and the results are presented in Table 3. The results establish the unexpected superiority of the 3-amino invention compounds compared to similar 3-hydroxy analogs.
# [15] = tested on: E. coli; experiment: as above; settings: mice
# Method: as §3
# [16] = RB1, Gram positive, read-out: Minimum Inhibitory Concentrations E. faecalis RB1
# [17] = C203, Gram positive, read-out: Minimum Inhibitory Concentrations S. pyogenes C203
# [18] = Staphylococcus aureus, 29213, Gram positive, read-out: Minimum Inhibitory Concentrations S. aureus 29213
# [19] = B90, Gram negative, read-out: Minimum Inhibitory Concentrations E. coli B90
# [20] = MC4100, Gram negative, read-out: Minimum Inhibitory Concentrations E. coli MC4100
# [21] = RB1, read-out: Minimum Inhibitory Concentrations E. faecalis RB1
# [22] = C203, read-out: Minimum Inhibitory Concentrations S. pyogenes C203
# [23] = Staphylococcus aureus, 29213, read-out: Minimum Inhibitory Concentrations S. aureus 29213
# [24] = B90, read-out: Minimum Inhibitory Concentrations E. coli B90
# [25] = MC4100, read-out: Minimum Inhibitory Concentrations E. coli MC4100
# [26] = supercoiling of relaxed pBR322, 30 minutes at 37° C., read-out: E. coli gyrase IC50
# T1 sequence (P0AES4 whole entry, one chain of several): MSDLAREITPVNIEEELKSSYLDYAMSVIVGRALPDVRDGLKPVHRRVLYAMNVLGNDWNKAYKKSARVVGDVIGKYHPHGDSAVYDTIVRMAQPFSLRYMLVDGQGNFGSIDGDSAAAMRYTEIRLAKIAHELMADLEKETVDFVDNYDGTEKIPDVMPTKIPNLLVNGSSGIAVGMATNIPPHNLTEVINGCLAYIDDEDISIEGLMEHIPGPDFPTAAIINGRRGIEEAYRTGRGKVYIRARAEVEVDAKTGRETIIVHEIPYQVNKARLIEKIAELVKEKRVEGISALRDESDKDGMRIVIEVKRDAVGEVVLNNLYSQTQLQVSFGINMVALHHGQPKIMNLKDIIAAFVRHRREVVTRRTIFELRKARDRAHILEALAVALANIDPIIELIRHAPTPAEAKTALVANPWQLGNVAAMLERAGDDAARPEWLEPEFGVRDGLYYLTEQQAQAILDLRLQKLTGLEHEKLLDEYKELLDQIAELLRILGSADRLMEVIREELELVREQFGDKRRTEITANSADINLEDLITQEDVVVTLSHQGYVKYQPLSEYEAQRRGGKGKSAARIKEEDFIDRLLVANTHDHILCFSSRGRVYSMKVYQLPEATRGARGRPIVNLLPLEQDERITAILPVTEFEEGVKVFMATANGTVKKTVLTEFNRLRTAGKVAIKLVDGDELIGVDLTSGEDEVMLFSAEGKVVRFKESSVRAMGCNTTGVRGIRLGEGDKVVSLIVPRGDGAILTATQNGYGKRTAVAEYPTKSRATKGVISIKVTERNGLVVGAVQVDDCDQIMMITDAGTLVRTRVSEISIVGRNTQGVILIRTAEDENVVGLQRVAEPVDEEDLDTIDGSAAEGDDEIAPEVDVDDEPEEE
smiles,measurement,setting,value
"N[C@@H]1[C@H]2CN(c3cc4c(cc3F)c(=O)n(O)c(=O)n4C3CC3)C[C@@H]12 [drawing 287, reference compound]",MIC,[1],32 µg/mL
same,MIC,[2],> 64 µg/mL
same,MIC,[3],0.25 µg/mL
same,MIC,[4],4 µg/mL
same,MIC,[5],4 µg/mL
same,MIC,[6],32 µg/mL
"Cl.Nn1c(=O)c2cc(F)c(N3CCC(CO)C3)c(Cl)c2n(C2CC2)c1=O (centres unmarked) [Compound 12, 3-Amino-7-(3-hydroxymethylpyrrolidin-1-yl)-8-chloro-1-cyclopropyl-6-fluoro-1H-quinazoline-2,4-dione hydrochloride]",melting point,,78 to 80 °C
same,MIC,[1],1 µg/mL
same,MIC,[2],2 µg/mL
same,MIC,[3],0.06 µg/mL
same,MIC,[4],1 µg/mL
same,MIC,[5],0.25 µg/mL
same,MIC,[6],1 µg/mL
same,MIC,[7],0.13 µg/mL
same,MIC,[8]; [16],4 µg/mL
same,MIC,[9]; [17],8 µg/mL
same,MIC,[10]; [18],2 µg/mL
same,MIC,[11]; [19],0.25 µg/mL
same,MIC,[12]; [20],16 µg/mL
same,IC50,[13],2100 nM
"NCC1CCN(c2c(F)cc3c(=O)n(N)c(=O)n(C4CC4)c3c2Cl)C1 (centres unmarked) [Compound 1, 3-Amino-7-(3-aminomethylpyrrolidin-1-yl)-8-chloro-1-cyclopropyl-6-fluoro-1H-quinazoline-2,4-dione hydrochloride]",MIC,[1],1 µg/mL
same,MIC,[2],1 µg/mL
same,MIC,[3],0.13 µg/mL
same,MIC,[4],0.13 µg/mL
same,MIC,[5],0.5 µg/mL
same,MIC,[6],1 µg/mL
same,PD50,[14],12 mg/kg
same,MIC,[7],0.25 µg/mL
same,MIC,[8]; [21],1 µg/mL
same,MIC,[9]; [22],0.13 µg/mL
same,MIC,[10]; [23],0.5 µg/mL
same,MIC,[11]; [24],1 µg/mL
same,MIC,[12]; [25],2 µg/mL
same,IC50,[13]; [26],1000 nM
"Nc1c(F)c(N2CC[C@H](N)C2)c(F)c2c1c(=O)n(N)c(=O)n2C1CC1 [Compound 11, 7-((S)-3-Aminopyrrolidin-1-yl)-1-cyclopropyl-3,5-diamino-6,8-difluoro-1H-quinazoline-2,4-dione hydrochloride]",MIC,[7],0.25 µg/mL
same,MIC,[8]; [21],8 µg/mL
same,MIC,[9]; [22],4 µg/mL
same,MIC,[10]; [23],8 µg/mL
same,MIC,[11]; [24],0.5 µg/mL
same,MIC,[12]; [25],2 µg/mL
same,IC50,[13]; [26],11000 nM
"N[C@@H]1[C@H]2CN(c3cc4c(cc3F)c(=O)n(O)c(=O)n4C3CC3)C[C@@H]12 [drawing 286, reference compound]",PD50,[14],>100 mg/kg
"N[C@@H]1[C@H]2CN(c3cc4c(cc3F)c(=O)n(O)c(=O)n4C3CC3)C[C@@H]12 [drawing 284, reference compound]",MIC,[7],0.25 µg/mL
same,MIC,[8]; [16],4 µg/mL
same,MIC,[9]; [17],2 µg/mL
same,MIC,[10]; [18],4 µg/mL
same,MIC,[11]; [19],0.25 µg/mL
same,MIC,[12]; [20],1 µg/mL
same,IC50,[13]; [26],900 nM
"Cl.NC1CCN(c2c(F)cc3c(=O)n(N)c(=O)n(C4CC4)c3c2Cl)C1 (centres unmarked) [Compound 10, 3-Amino-7-(3-aminopyrrolidin-1-yl)-8-chloro-1-cyclopropyl-6-fluoro-1H-quinazoline-2,4-dione hydrochloride]",PD50,[15],72 mg/kg
"Cl.N[C@H]1CCN(c2c(F)cc3c(=O)n(N)c(=O)n(NC4CC4)c3c2F)C1 [Compound 7, 3-Amino-7-[(S)-3-aminopyrrolidin-1-yl]-1-cyclopropylamino-6,8-difluoro-1H-quinazoline-2,4-dione hydrochloride]",Minimum Inhibitory Concentrations E. coli Tol C,[7]; Gram negative,0.25 µg/mL
same,Minimum Inhibitory Concentrations E. faecalis RB1,[8]; Gram positive,8.0 µg/mL
same,Minimum Inhibitory Concentrations S. pyogenes C203,[9]; Gram positive,4.0 µg/mL
same,Minimum Inhibitory Concentrations S. aureus 29213,[10]; Gram positive,8.0 µg/mL
same,Minimum Inhibitory Concentrations E. coli B90,[11]; Gram negative,0.5 µg/mL
same,Minimum Inhibitory Concentrations E. coli MC4100,[12]; Gram negative,2.0 µg/mL
same,IC50,[13]; [26],1300 nM
"CC1(CN)CCN(c2c(F)cc3c(=O)n(N)c(=O)n(C4CC4)c3c2Cl)C1 (centres unmarked) [Compound 3, 3-Amino-7-[3-(aminomethyl)-3-methylpyrrolidin-1-yl]-8-chloro-1-cyclopropyl-6-fluoro-1H-quinazoline-2,4-dione hydrochloride]",MIC,[1],2 µg/mL
same,MIC,[2],4 µg/mL
same,MIC,[3],0.5 µg/mL
same,MIC,[4],1 µg/mL
same,MIC,[5],1 µg/mL
same,MIC,[6],2 µg/mL
N[C@H]1CCN(c2cc3c(cc2F)c(=O)n(O)c(=O)n3C2CC2)C1 [reference compound],MIC,[1],> 64 µg/mL
same,MIC,[2],> 64 µg/mL
same,MIC,[3],0.5 µg/mL
same,MIC,[4],4 µg/mL
same,MIC,[5],2 µg/mL
same,MIC,[6],> 64 µg/mL
O=c1c2cc(F)c(N3C[C@@H]4CCCN[C@@H]4C3)cc2n(C2CC2)c(=O)n1O [reference compound],MIC,[7],1 µg/mL
same,MIC,[8]; [16],64 µg/mL
same,MIC,[9]; [17],32 µg/mL
same,MIC,[10]; [18],32 µg/mL
same,MIC,[11]; [19],2 µg/mL
same,MIC,[12]; [20],8 µg/mL
same,IC50,[13]; [26],5000 nM
"N[C@H]1CCN(c2c(F)c(F)c3c(=O)n(N)c(=O)n(C4CC4)c3c2F)C1 [Compound 9, 3-Amino-7-((S)-3-aminopyrrolidin-1-yl)-1-cyclopropyl-5,6,8-trifluoro-1H-quinazoline-2,4-dione hydrochloride]",MIC,[7],0.5 µg/mL
same,MIC,[8]; [21],32 µg/mL
same,MIC,[9]; [22],16 µg/mL
same,MIC,[10]; [23],16 µg/mL
same,MIC,[11]; [24],1 µg/mL
same,MIC,[12]; [25],2 µg/mL
same,IC50,[13]; [26],3000 nM
"Cl.N[C@@H]1CN(c2c(F)cc3c(=O)n(N)c(=O)n(C4CC4)c3c2Cl)CC12CC2 [Compound 14, 3-Amino-7-((S)-7-amino-5-azaspiro[2.4]hept-5-yl)-8-chloro-1-cyclopropyl-6-fluoro-1H-quinazoline-2,4-dione hydrochloride]",melting point,,177 to 179 °C
same,MIC,[7],0.5 µg/mL
same,MIC,[8]; [16],8 µg/mL
same,MIC,[9]; [17],4 µg/mL
same,MIC,[10]; [18],8 µg/mL
same,MIC,[11]; [19],0.25 µg/mL
same,MIC,[12]; [20],4 µg/mL
same,IC50,[13],2400 nM
COc1c(N2CC3CC3(CN)C2)c(F)cc2c(=O)n(N)c(=O)n(C3CC3)c12.Cl (centres unmarked),melting point,,183 to 185 °C
COc1c(N2C[C@@H](C)[C@H](N)C2)c(F)cc2c(=O)n(N)c(=O)n(C3CC3)c12.Cl (relative stereo),melting point,,209 °C
Cc1c(N2CCC(C(=O)O)C2)c(F)cc2c(=O)n(N)c(=O)n(C3CC3)c12.O=C(O)C(F)(F)F (centres unmarked),melting point,,226 °C (dec.)
CCn1c(=O)n(N)c(=O)c2ccc(N3CC[C@H](N)C3)c(F)c21.Cl,melting point,,248 to 251 °C
